Data reported in US4414204A, “Antibiotic preparations having increased effectiveness, processes for their manufacture and method for increasing the antibiotic action of antibiotics” (Ciba-Geigy Corporation, priority 1979, dated 1983).

Experiments:
Assay type in all cases: in vivo
Pasteurella multocida = test: Mice infected i.p. with Pasteurella multocida, treated s.c. with cefroxadin alone or with muramylpeptide; survival, ED50; conditions: 0.1×10^4 cfu Pasteurella multocida i.p., cefroxadin twice s.c. (0 and 3 h after infection) with 10 mg/kg N-acetylmuramyl-L-alanyl-D-isoglutaminyl-L-alanyl-2-(1',2'-dipalmitoyl-sn-glycero-3'-hydroxyphosphoryloxy)-ethylamide, survivors counted 4 and 10 days after infection
Protocol: (§1) For this purpose, animals are infected with a lethal or sub-lethal dose of a pathogenic micro-organism and then the specified novel preparation of the individual doses of muramylpeptide and antibiotic are administered. The action is determined as ED50, that is to say, the dose at which 50% of the animals survive.
(§2) Laboratory white mice are infected i.p. with 2×10^4 cfu (colony forming units) of Klebsiella pneumoniae, 0.1×10^4 cfu of Pasteurella multocida or 40×10^4 cfu of Salmonella typhimurium in salt solution so that 90 to 100% of the untreated control animals die within 48 hours. Immediately after infection and 3 hours after infection, groups of 10 mice are treated with cefroxadin, both alone (without muramylpeptide) and in combination with 10 mg/kg of N-acetylmuramyl-L-alanyl-D-isoglutaminyl-L-alanyl-2-(1',2'-dipalmitoyl-sn- glycero-3'-hydroxyphosphoryloxy)-ethylamide, these being administered twice subcutaneously in the form of aqueous solutions or suspensions. A count of the surviving animals was made 4 and 10 days after infection.

Klebsiella pneumoniae = test: Mice infected i.p. with Klebsiella pneumoniae, treated s.c. with cefroxadin alone or with muramylpeptide; survival, ED50; conditions: 2×10^4 cfu Klebsiella pneumoniae i.p., cefroxadin twice s.c. (0 and 3 h after infection) with 10 mg/kg N-acetylmuramyl-L-alanyl-D-isoglutaminyl-L-alanyl-2-(1',2'-dipalmitoyl-sn-glycero-3'-hydroxyphosphoryloxy)-ethylamide, survivors counted 4 and 10 days after infection
Protocol: as §1, §2

Salmonella typhimurium = test: Mice infected i.p. with Salmonella typhimurium, treated s.c. with cefroxadin alone or with muramylpeptide; survival, ED50; conditions: 40×10^4 cfu Salmonella typhimurium i.p., cefroxadin twice s.c. (0 and 3 h after infection) with 10 mg/kg N-acetylmuramyl-L-alanyl-D-isoglutaminyl-L-alanyl-2-(1',2'-dipalmitoyl-sn-glycero-3'-hydroxyphosphoryloxy)-ethylamide, survivors counted 4 and 10 days after infection
Protocol: as §1, §2

Measured: ED50 values for the antibiotic in combination with the muramylpeptide versus alone

COC1=C(C(=O)O)N2C(=O)[C@@H](NC(=O)[C@H](N)C3=CCC=CC3)[C@H]2SC1 [cefroxadin, 7β-[D-2-amino-2-(1,4-cyclohexadienyl)-acetamido]-3-methoxy-3-cephem-4-carboxylic acid]
lower by a multiple: all assays above
